IC50 data for 28 compounds are collected here from patent US8163771B2, “11 β-HSD1 modulators” (Exelixis, Inc., priority 2008, dated 2012).

The structures appear in SMILES notation. Bounds are passed on as bounds.

The term IC50 denotes the point on the concentration scale where inhibition reaches its midpoint.

The target of this test is T1, recombinant human 11 β-HSD1 (Homo sapiens, UniProt P28845).
T1 construct: made in house; host or cells: E. coli
T1 sequence (P28845 whole entry): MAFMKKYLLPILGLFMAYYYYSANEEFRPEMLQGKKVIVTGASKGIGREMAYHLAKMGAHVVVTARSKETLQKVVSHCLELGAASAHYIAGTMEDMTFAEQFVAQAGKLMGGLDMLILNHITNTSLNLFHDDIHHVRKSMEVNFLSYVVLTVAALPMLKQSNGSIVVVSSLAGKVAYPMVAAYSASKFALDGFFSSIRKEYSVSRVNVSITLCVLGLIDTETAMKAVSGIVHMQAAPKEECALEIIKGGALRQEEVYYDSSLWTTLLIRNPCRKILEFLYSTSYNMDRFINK
Briefly: 11 β-HSD1 SPA Assay (Scintillation Proximity Assay). The test is classed as biochemical. The method, boiled down:
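Scintillation proximity read-out of cortisol formed from 40 nM [3H]cortisone by purified recombinant human enzyme (30-100 nM, E. coli) with 1 mM NADPH, pH7.4, 2 hours at room temperature; beads with cortisol antibody and glycyrrhetinic acid stop the reaction, read next day. IC50 derived from inhibition normalised to background and maximal wells.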
Background: Scintillation proximity formats need no separation of bound from free tracer.
In the case of `CC(C)(Oc1ccc(Cl)c(Cl)c1)C(=O)N[C@H]1C[C@H]2CC[C@@H](C1)N2c1ccc(S(C)(=O)=O)cc1` [Example 206, 2-[(3,4-dichlorophenyl)oxy]-2-methyl-N-{8-[4-(methylsulfonyl)phenyl]-8-azabicyclo[3.2.1]oct-3-endo-yl}propanamide], the IC50 is less than 2000 nM.

With `CC(C)(Oc1ccc(F)c(F)c1)C(=O)N[C@H]1C[C@H]2CC[C@@H](C1)N2c1ccc(S(C)(=O)=O)cn1` [Example 207, 2-[(3,4-difluorophenyl)oxy]-2-methyl-N-{8-[5-(methylsulfonyl)pyridin-2-yl]-8-azabicyclo[3.2.1]oct-3-endo-yl}propanamide], the concentration for half-maximal inhibition (IC50) is less than 2000 nM.

Take `CC(C)(Oc1ccc(F)c(F)c1)C(=O)N[C@H]1C[C@H]2CC[C@@H](C1)N2c1ccc(S(N)(=O)=O)cn1` [Example 208, N-{8-[5-(aminosulfonyl)pyridin-2-yl]-8-azabicyclo[3.2.1]oct-3-endo-yl}-2-[(3,4-difluorophenyl)oxy]-2-methylpropanamide]: the IC50 was less than 2000 nM.

`CC(C)(Oc1ccc(F)c(F)c1)C(=O)N[C@H]1C[C@H]2CC[C@@H](C1)N2c1ccc(S(C)(=O)=O)cc1` [Example 209, 2-[(3,4-difluorophenyl)oxy]-2-methyl-N-{8-[4-(methylsulfonyl)phenyl]-8-azabicyclo[3.2.1]oct-3-endo-yl}propanamide]: the IC50 is less than 2000 nM.

With `CC(C)(Oc1ccc(F)c(F)c1)C(=O)N[C@H]1C[C@H]2CC[C@@H](C1)N2c1ccc(C(=O)NCC(F)(F)F)cc1` [Example 210, 4-[3-endo-({2-[(3,4-difluorophenyl)oxy]-2-methylpropanoyl}amino)-8-azabicyclo[3.2.1]oct-8-yl]-N-(2,2,2-trifluoroethyl)benzamide], the concentration for half-maximal inhibition (IC50) is less than 200 nM.

Regarding `CC(C)(Oc1ccc(Cl)cc1C(F)(F)F)C(=O)N[C@H]1C[C@H]2CC[C@@H](C1)N2c1ccc(S(N)(=O)=O)cn1` [Example 211, N-{8-[5-(aminosulfonyl)pyridin-2-yl]-8-azabicyclo[3.2.1]oct-3-endo-yl}-2-{[4-chloro-2-(trifluoromethyl)phenyl]oxy}-2-methylpropanamide], the IC50 was less than 200 nM.

Regarding `Cc1ccc(OC(C)(C)C(=O)N[C@H]2C[C@H]3CC[C@@H](C2)N3c2ccc(S(C)(=O)=O)cn2)c(Cl)c1` [Example 212, 2-[(2-chloro-4-methylphenyl)oxy]-2-methyl-N-{8-[5-(methylsulfonyl)pyridin-2-yl]-8-azabicyclo[3.2.1]oct-3-endo-yl}propanamide], the IC50 is less than 200 nM.

Regarding `Cc1ccc(OC(C)(C)C(=O)N[C@H]2C[C@H]3CC[C@@H](C2)N3c2ccc(S(N)(=O)=O)cn2)c(Cl)c1` [Example 213, N-{8-[5-(aminosulfonyl)pyridin-2-yl]-8-azabicyclo[3.2.1]oct-3-endo-yl}-2-[(2-chloro-4-methylphenyl)oxy]-2-methylpropanamide], the IC50 is less than 200 nM.

As for `Cc1ccc(OC(C)(C)C(=O)N[C@H]2C[C@H]3CC[C@@H](C2)N3c2ccc(S(C)(=O)=O)cc2)c(Cl)c1` [Example 214, 2-[(2-chloro-4-methylphenyl)oxy]-2-methyl-N-{8-[4-(methylsulfonyl)phenyl]-8-azabicyclo[3.2.1]oct-3-endo-yl}propanamide], the IC50 was less than 200 nM.

Regarding `CC(C)(Oc1ccc(F)c(Cl)c1Cl)C(=O)N[C@H]1C[C@H]2CC[C@@H](C1)N2c1ccc(S(N)(=O)=O)cn1` [Example 215, N-{8-[5-(aminosulfonyl)pyridin-2-yl]-8-azabicyclo[3.2.1]oct-3-endo-yl}-2-[(2,3-dichloro-4-fluorophenyl)oxy]-2-methylpropanamide], the IC50 was less than 200 nM.

As to `CC(C)(Oc1cc(F)c(F)cc1F)C(=O)N[C@H]1C[C@H]2CC[C@@H](C1)N2c1ccc(S(N)(=O)=O)cn1` [Example 216, N-{8-[5-(aminosulfonyl)pyridin-2-yl]-8-azabicyclo[3.2.1]oct-3-endo-yl}-2-methyl-2-[(2,4,5-trifluorophenyl)oxy]propanamide], the half-inhibitory concentration (IC50) was less than 200 nM.

In the case of `Cc1cc(F)ccc1OC(C)(C)C(=O)N[C@H]1C[C@H]2CC[C@@H](C1)N2c1ccc(S(C)(=O)=O)cn1` [Example 217, 2-[(4-fluoro-2-methylphenyl)oxy]-2-methyl-N-{8-[5-(methylsulfonyl)pyridin-2-yl]-8-azabicyclo[3.2.1]oct-3-endo-yl}propanamide], the half-inhibitory concentration (IC50) is less than 200 nM.

With `Cc1cc(F)ccc1OC(C)(C)C(=O)N[C@H]1C[C@H]2CC[C@@H](C1)N2c1ccc(S(N)(=O)=O)cn1` [Example 218, N-{8-[5-(aminosulfonyl)pyridin-2-yl]-8-azabicyclo[3.2.1]oct-3-endo-yl}-2-[(4-fluoro-2-methylphenyl)oxy]-2-methylpropanamide], the half-inhibitory concentration (IC50) was less than 200 nM.

Regarding `Cc1cc(F)ccc1OC(C)(C)C(=O)N[C@H]1C[C@H]2CC[C@@H](C1)N2c1ccc(S(C)(=O)=O)cc1` [Example 219, 2-[(4-fluoro-2-methylphenyl)oxy]-2-methyl-N-{8-[4-(methylsulfonyl)phenyl]-8-azabicyclo[3.2.1]oct-3-endo-yl}propanamide], the IC50 is less than 200 nM.

As for `COc1cc(F)ccc1OC(C)(C)C(=O)N[C@H]1C[C@H]2CC[C@@H](C1)N2c1ccc(S(C)(=O)=O)cn1` [Example 220], the 50% inhibitory concentration (IC50) is less than 200 nM.

`COc1cc(F)ccc1OC(C)(C)C(=O)N[C@H]1C[C@H]2CC[C@@H](C1)N2c1ccc(S(N)(=O)=O)cn1` [Example 221, N-{8-[5-(aminosulfonyl)pyridin-2-yl]-8-azabicyclo[3.2.1]oct-3-endo-yl}-2-{[4-fluoro-2-(methyloxy)phenyl]oxy}-2-methylpropanamide]: the IC50 is less than 200 nM.

Consider `COc1cc(F)ccc1OC(C)(C)C(=O)N[C@H]1C[C@H]2CC[C@@H](C1)N2c1ccc(S(C)(=O)=O)cc1` [Example 222, 2-{[4-fluoro-2-(methyloxy)phenyl]oxy}-2-methyl-N-{8-[4-(methylsulfonyl)phenyl]-8-azabicyclo[3.2.1]oct-3-endo-yl}propanamide], for which the half-maximal inhibitory concentration (IC50) is less than 200 nM.

On to `CC(C)(Oc1ccc(Cl)cc1F)C(=O)N[C@H]1C[C@H]2CC[C@@H](C1)N2c1ccc(S(C)(=O)=O)cc1` [Example 223, 2-[(4-chloro-2-fluorophenyl)oxy]-2-methyl-N-{8-[4-(methylsulfonyl)phenyl]-8-azabicyclo[3.2.1]oct-3-endo-yl}propanamide], for which the 50% inhibitory concentration (IC50) is less than 200 nM.

On to `CC(C)(Oc1ccc(F)cc1F)C(=O)N[C@H]1C[C@H]2CC[C@@H](C1)N2c1ccc(S(C)(=O)=O)cc1` [Example 224, 2-[(2,4-difluorophenyl)oxy]-2-methyl-N-{8-[4-(methylsulfonyl)phenyl]-8-azabicyclo[3.2.1]oct-3-endo-yl}propanamide], for which the IC50 was less than 200 nM.

Consider `CC(C)(Oc1cc(F)c(F)cc1Cl)C(=O)N[C@H]1C[C@H]2CC[C@@H](C1)N2c1ccc(S(C)(=O)=O)cc1` [Example 225, 2-[(2-chloro-4,5-difluorophenyl)oxy]-2-methyl-N-{8-[4-(methylsulfonyl)phenyl]-8-azabicyclo[3.2.1]oct-3-endo-yl}propanamide], for which the IC50 is less than 200 nM.

As to `CC(C)(Oc1ccc(F)c(Cl)c1)C(=O)N[C@H]1C[C@H]2CC[C@@H](C1)N2c1ccc(S(C)(=O)=O)cn1` [Example 226, 2-[(3-chloro-4-fluorophenyl)oxy]-2-methyl-N-{8-[5-(methylsulfonyl)pyridin-2-yl]-8-azabicyclo[3.2.1]oct-3-endo-yl}propanamide], the half-inhibitory concentration (IC50) was less than 200 nM.

`CC(C)(Oc1ccc(F)c(Cl)c1)C(=O)N[C@H]1C[C@H]2CC[C@@H](C1)N2c1ccc(S(N)(=O)=O)cn1` [Example 227, N-{8-[5-(aminosulfonyl)pyridin-2-yl]-8-azabicyclo[3.2.1]oct-3-endo-yl}-2-[(3-chloro-4-fluorophenyl)oxy]-2-methylpropanamide]: the IC50 was less than 200 nM.

On to `CC(C)(Oc1ccc(F)c(Cl)c1)C(=O)N[C@H]1C[C@H]2CC[C@@H](C1)N2c1ccc(S(C)(=O)=O)cc1` [Example 228, 2-[(3-chloro-4-fluorophenyl)oxy]-2-methyl-N-{8-[4-(methylsulfonyl)phenyl]-8-azabicyclo[3.2.1]oct-3-endo-yl}propanamide], for which the IC50 was less than 2000 nM.

With `CC(C)(Oc1ccc(Cl)cc1F)C(=O)N[C@H]1C[C@H]2CC[C@@H](C1)N2c1ccc(S(C)(=O)=O)cn1` [Example 229, 2-[(4-chloro-2-fluorophenyl)oxy]-2-methyl-N-{8-[5-(methylsulfonyl)pyridin-2-yl]-8-azabicyclo[3.2.1]oct-3-endo-yl}propanamide], the IC50 was less than 200 nM.

In the case of `CC(C)(Oc1ccc(F)cc1)C(=O)N[C@H]1C[C@H]2CC[C@@H](C1)N2c1ccc(S(C)(=O)=O)cn1` [Example 230, 2-[(4-fluorophenyl)oxy]-2-methyl-N-{8-[5-(methylsulfonyl)pyridin-2-yl]-8-azabicyclo[3.2.1]oct-3-endo-yl}propanamide], the half-inhibitory concentration (IC50) was less than 2000 nM.

`CC(C)(Oc1cc(F)c(F)cc1Cl)C(=O)N[C@H]1C[C@H]2CC[C@@H](C1)N2c1ccc(S(C)(=O)=O)cn1` [Example 231, 2-[(2-chioro-4,5-difluorophenyl)oxy]-2-methyl-N-{8-[5-(methylsulfonyl)pyridin-2-yl]-8-azabicyclo[3.2.1]oct-3-endo-yl}propanamide]: the concentration for half-maximal inhibition (IC50) is less than 200 nM.

Consider `CC(C)(Oc1cc(F)c(F)cc1F)C(=O)N[C@H]1C[C@H]2CC[C@@H](C1)N2c1ccc(S(C)(=O)=O)cn1` [Example 232, 2-methyl-N-{8-[5-(methylsulfonyl)pyridin-2-yl]-8-azabicyclo[3.2.1]oct-3-endo-yl}-2-[(2,4,5-trifluorophenyl)oxy]propanamide], for which the concentration for half-maximal inhibition (IC50) was less than 200 nM.

For the compound `CC(C)(Oc1ccc(F)cc1)C(=O)N[C@H]1C[C@H]2CC[C@@H](C1)N2c1ccc(S(C)(=O)=O)cc1` [Example 233, 2-[(4-fluorophenyl)oxy]-2-methyl-N-{8-[4-(methylsulfonyl)phenyl]-8-azabicyclo[3.2.1]oct-3-endo-yl}propanamide], the IC50 is less than 2000 nM.
